Test results reported in the NIST ThermoML archive (doi:10.1016/j.fluid.2007.07.066).
Numbers after ± are expanded uncertainties.

Assay: mn = molality of the nth substance listed, in mol/kg
Conditions: 101 kPa, Liquid; for speed of sound: Sing-around technique in a fixed-path interferometer

O=P([O-])([O-])O.[Na+].[Na+] [disodium hydrogen phosphate] + O
Conditions	mass density, 288.15 K [kg/m3]	mass density, 293.15 K [kg/m3]	speed of sound, 288.15 K [m/s]	speed of sound, 293.15 K [m/s]
m1 = 0.007	1000.1 ± 0.2	999.185 ± 0.2	–	1483.8 ± 0.82
m1 = 0.0104	1000.57 ± 0.21	999.653 ± 0.2	–	1484.5 ± 0.82
m1 = 0.0141	1001.09 ± 0.19	1000.17 ± 0.19	–	1485.2 ± 0.82
m1 = 0.032	1003.56 ± 0.21	1002.61 ± 0.2	–	1488.4 ± 0.82
m1 = 0.0386	1004.46 ± 0.21	1003.49 ± 0.2	–	1489.6 ± 0.82
m1 = 0.0411	1004.81 ± 0.21	1003.85 ± 0.21	–	1490.1 ± 0.82
m1 = 0.0496	1006 ± 0.21	1005.01 ± 0.21	–	1491.7 ± 0.82
m1 = 0.0632	1007.85 ± 0.21	1006.84 ± 0.21	–	1494.1 ± 0.82
m1 = 0.0737	1009.28 ± 0.21	1008.26 ± 0.21	–	1495.9 ± 0.82
m1 = 0.1066	1013.73 ± 0.22	–	–	1501.7 ± 0.82
m1 = 0.181	1023.64 ± 0.23	–	–	1514.3 ± 0.83
m1 = 0.2454	1032.07 ± 0.25	–	–	1525 ± 0.83
m1 = 0.2498	1032.64 ± 0.23	–	–	1525.7 ± 0.83
m1 = 0.2939	1038.38 ± 0.25	–	–	1533 ± 0.84
m1 = 0.3192	1041.64 ± 0.25	–	1522.6 ± 0.83	1537.1 ± 0.84
m1 = 0.3723	1048.34 ± 0.26	–	1531.2 ± 0.84	1545.5 ± 0.84
m1 = 0.4483	1057.89 ± 0.27	–	1543.6 ± 0.84	1557.6 ± 0.85
m1 = 0.6185	1078.87 ± 0.3	–	1570.8 ± 0.85	1584 ± 0.85
m1 = 0.7841	1098.62 ± 0.33	–	1596.7 ± 0.86	1609.1 ± 0.86
